Experimental data as given in the supplement of paper PMC11208160.

experiment: recombinant barcode read abundance after kanamycin selection (control-corrected) (log10(CPM+1)); higher = more efficient recombination; sequences stand for … in AGTGCAGAGAAAATCGGCCAGTTTTCTCTGCCTGCAGTCCGCATGCCGT…AGATTTATGCAGCGGACTGCCTTTCTCCCAAAGTGATAAACCGGACAGTATCATGGACCGGTTTTCCCGGTAATCCGTATTTGCAAGGTTGGTTTCACT; site = the 11-nt target
Outline: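 Recombination efficiency draws on barcodes counted at recombinant junctions in a pooled E. coli screen of targets paired with IS621 bridge RNA target-binding loops. The counts were converted to counts per million, averaged and corrected against the chloramphenicol/ampicillin LB agar control, then reported as log10(CPM+1). Selection plates held chloramphenicol/ampicillin/kanamycin with 0.1 mM IPTG, with two replicates per condition.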
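Further: IS621 recombinase and bridge RNA in Escherichia coli cells.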

| Sequence | recombinant barcode read abundance (log10) |
| --- | --- |
| GTTCAGCCTTGGGTTCTAACCTGTTGCCT (site GTTCAGCCTAG) | 0.611 |
| GTTCCAGCTTGGGTTCTAACCTGTTGCCT (site AGCAGCCCTCT) | 0.0192 |
| GTTCCAGCTTGGGTTCTAACCTGTTGCCT (site GTTCCAGCTAG) | 0.792 |
| GTTCCATCTTGGGTTCTAACCTGTTGCCT (site GATCCATCTAG) | 0.172 |
| GTTCCATCTTGGGTTCTAACCTGTTGCCT (site GCTCCATCTAG) | 0.28 |
| GTTCCATCTTGGGTTCTAACCTGTTGCCT (site GGTCCATCTAG) | 0.216 |
| GTTCCATCTTGGGTTCTAACCTGTTGCCT (site GTTCCATCTAG) | 0.601 |
| GTTCCGGCTTGGGTTCTAACCTGTTGCCT (site GTTACGGCTAG) | 0.139 |
| GTTCCGGCTTGGGTTCTAACCTGTTGCCT (site GTTCCGGCTAG) | 0.834 |
| GTTCCGGCTTGGGTTCTAACCTGTTGCCT (site GTTGCGGCTAG) | 0.145 |
| GTTCCGGCTTGGGTTCTAACCTGTTGCCT (site GTTTCGGCTAG) | 0.373 |
| GTTCCTACTTGGGTTCTAACCTGTTGCCT (site GATCCTACTAG) | 0.215 |
| GTTCCTACTTGGGTTCTAACCTGTTGCCT (site GCTCCTACTAG) | 0.00954 |
| GTTCCTACTTGGGTTCTAACCTGTTGCCT (site GGTCCTACTAG) | 0.133 |
| GTTCCTACTTGGGTTCTAACCTGTTGCCT (site GTTCCTACTAG) | 0.328 |
| GTTGCCACTTGGGTTCTAACCTGTTGCCT (site GTAGCCACTAG) | 0.137 |
| GTTGCCACTTGGGTTCTAACCTGTTGCCT (site GTCGCCACTAG) | 0.0124 |
| GTTGCCACTTGGGTTCTAACCTGTTGCCT (site GTGGCCACTAG) | 0.0918 |
| GTTGCCACTTGGGTTCTAACCTGTTGCCT (site GTTGCCACTAG) | 0.411 |
| GTTGGAACTTGGGTTCTAACCTGTTGCGT (site GTTGGAACTAC) | 2.05 |
| GTTGGAACTTGGGTTCTAACCTGTTGCGT (site GTTGGGACTAG) | 0.312 |
| GTTGGCGCTTGGGTTCTAACCTGTTGCCT (site GTAGGCGCTAG) | 0.276 |

| Sequence | recombinant barcode read abundance (log10) |
| --- | --- |
| GTTGGCGCTTGGGTTCTAACCTGTTGCCT (site GTCGGCGCTAG) | 0.125 |
| GTTGGCGCTTGGGTTCTAACCTGTTGCCT (site GTGGGCGCTAG) | 0.0363 |
| GTTGGCGCTTGGGTTCTAACCTGTTGCCT (site GTTGGCGCTAG) | 0.841 |
| GTTGGGGCTTGGGTTCTAACCTGTTGCCT (site GTGGTGGCTAG) | 0.254 |
| GTTGGGGCTTGGGTTCTAACCTGTTGCCT (site GTTGGGGCTAG) | 0.634 |
| GTTTAATCTTGGGTTCTAACCTGTTGCAT (site GTTTAATCTAT) | 0.343 |
| GTTTAATCTTGGGTTCTAACCTGTTGCAT (site TGGGTCACTTA) | 0.0197 |
| GTTTGGACTTGGGTTCTAACCTGTTGCAG (site GCTTGGACTAT) | 0.153 |
| GTTTGGACTTGGGTTCTAACCTGTTGCAG (site GTTTGGACTCT) | 1.11 |
| GTTTGGACTTGGGTTCTAACCTGTTGCTG (site GTTTGGACTCA) | 1.06 |
| GTTTGGACTTGGGTTCTAACCTGTTGCTG (site GTTTGGACTTA) | 0.195 |
| TAAAAGACTTGGGTTCTAACCTGTTGCCT (site TAAAAGACTAG) | 0.307 |
| TAAAAGACTTGGGTTCTAACCTGTTGCCT (site TAAAAGCCTAG) | 0.0498 |
| TAAAAGACTTGGGTTCTAACCTGTTGCCT (site TAAAAGGCTAG) | 0.311 |
| TAAAAGACTTGGGTTCTAACCTGTTGCCT (site TAAAAGTCTAG) | 0.178 |
| TAAAAGTCTTGGGTTCTAACCTGTTGCCT (site TAAAAGACTAG) | 0.108 |
| TAAAAGTCTTGGGTTCTAACCTGTTGCCT (site TAAAAGCCTAG) | 0.0186 |
| TAAAAGTCTTGGGTTCTAACCTGTTGCCT (site TAAAAGGCTAG) | 0.0795 |
| TAAAAGTCTTGGGTTCTAACCTGTTGCCT (site TAAAAGTCTAG) | 0.696 |
| TAAAGTACTTGGGTTCTAACCTGTTGCTT (site TAAAGTACTAA) | 0.467 |
| TAAAGTACTTGGGTTCTAACCTGTTGCTT (site TAACGTACTAA) | 0.0583 |
| TAAAGTACTTGGGTTCTAACCTGTTGCTT (site TAAGGTACTAA) | 0.017 |

| Sequence | recombinant barcode read abundance (log10) |
| --- | --- |
| TAAAGTACTTGGGTTCTAACCTGTTGCTT (site TAATGTACTAA) | 0.0546 |
| TAACACTCTTGGGTTCTAACCTGTTGCCT (site TAACACTCTAG) | 2 |
| TAACACTCTTGGGTTCTAACCTGTTGCCT (site TCACAGTCTAG) | 0.19 |
| TAACAGTCTTGGGTTCTAACCTGTTGCGT (site TAACAGTCTAC) | 2.85 |
| TAACAGTCTTGGGTTCTAACCTGTTGCGT (site TAACCGTCTAT) | 0.246 |
| TAACCGTCTTGGGTTCTAACCTGTTGCAT (site TAACAGTCTAC) | 0.179 |
| TAACCGTCTTGGGTTCTAACCTGTTGCAT (site TAACCGTCTAT) | 0.286 |
| TAACCTACTTGGGTTCTAACCTGTTGCCT (site TAACCTACTAG) | 0.442 |
| TAACCTACTTGGGTTCTAACCTGTTGCCT (site TAACCTCCTAG) | 0.055 |
| TAACCTACTTGGGTTCTAACCTGTTGCCT (site TAACCTGCTAG) | 0.0455 |
| TAACCTACTTGGGTTCTAACCTGTTGCCT (site TAACCTTCTAG) | 0.0774 |
| TAACCTACTTGGGTTCTAACCTGTTGCTA (site GGTGAGGCTAT) | 0.0991 |
| TAACCTACTTGGGTTCTAACCTGTTGCTA (site TAACCTACTTA) | 0.864 |
| TAACCTCCTTGGGTTCTAACCTGTTGCCT (site TAACCTACTAG) | 0.0181 |
| TAACCTCCTTGGGTTCTAACCTGTTGCCT (site TAACCTCCTAG) | 0.444 |
| TAACCTCCTTGGGTTCTAACCTGTTGCCT (site TAACCTGCTAG) | 0.0867 |
| TAACCTCCTTGGGTTCTAACCTGTTGCCT (site TAACCTTCTAG) | 0.127 |
| TAACGACCTTGGGTTCTAACCTGTTGCCT (site AAACGACCTAG) | 0 |
| TAACGACCTTGGGTTCTAACCTGTTGCCT (site CAACGACCTAG) | 0.055 |
| TAACGACCTTGGGTTCTAACCTGTTGCCT (site GAACGACCTAG) | 0.0956 |
| TAACGACCTTGGGTTCTAACCTGTTGCCT (site TAACGACCTAG) | 1.42 |
| TAACGGCCTTGGGTTCTAACCTGTTGCCT (site TAACGGCCTAG) | 0.539 |

| Sequence | recombinant barcode read abundance (log10) |
| --- | --- |
| TAACGGCCTTGGGTTCTAACCTGTTGCCT (site TACCGGCCTAG) | 0.504 |
| TAACGGCCTTGGGTTCTAACCTGTTGCCT (site TAGCGGCCTAG) | 0.198 |
| TAACGGCCTTGGGTTCTAACCTGTTGCCT (site TATCGGCCTAG) | 0.0776 |
| TAACGTCCTTGGGTTCTAACCTGTTGCGT (site TAACGTACTCC) | 0.0665 |
| TAACGTCCTTGGGTTCTAACCTGTTGCGT (site TAACGTCCTAC) | 1.4 |
| TAACGTTCTTGGGTTCTAACCTGTTGCCT (site TAACGTTCTAG) | 0.385 |
| TAACGTTCTTGGGTTCTAACCTGTTGCCT (site TACCGTTCTAG) | 0.0273 |
| TAAGATCCTTGGGTTCTAACCTGTTGCCT (site TAAGATCCTAG) | 1.63 |
| TAAGATCCTTGGGTTCTAACCTGTTGCCT (site TAGGCTCCTAG) | 0.0611 |
| TAAGCTACTTGGGTTCTAACCTGTTGCTG (site TAAGCCTCTCA) | 0.0237 |
| TAAGCTACTTGGGTTCTAACCTGTTGCTG (site TAAGCTACTCA) | 0.885 |
| TACAATTCTTGGGTTCTAACCTGTTGCAT (site GGGCTCCCTCG) | 0.0564 |
| TACAATTCTTGGGTTCTAACCTGTTGCAT (site TACAATTCTAT) | 0.03 |
| TACAGCCCTTGGGTTCTAACCTGTTGCCT (site TACAGCCCTAG) | 0.932 |
| TACAGCCCTTGGGTTCTAACCTGTTGCCT (site TTCAGCCCTAG) | 0.183 |
| TACAGTACTTGGGTTCTAACCTGTTGCCT (site AACAGTACTAG) | 0.0317 |
| TACAGTACTTGGGTTCTAACCTGTTGCCT (site CACAGTACTAG) | 0.326 |
| TACAGTACTTGGGTTCTAACCTGTTGCCT (site GACAGTACTAG) | 0.325 |
| TACAGTACTTGGGTTCTAACCTGTTGCCT (site TACAGTACTAG) | 0.291 |
| TACATCCCTTGGGTTCTAACCTGTTGCCG (site TACATCCCTAG) | 0.0934 |
